From patent US20040198770A1, “Uses for l-tetrahydropalmatine” (PharmacoGenetics Limited, priority 2003, published 2004)

What was measured:
Format in all cases: in vivo
ICR mice [1] = assay: Horizontal-wire test; settings: for No. of falling: Table 1, mice; for No. of falling / Number of falling: 60 s; for Number of falling: Table 2, mice
Method: (§1) ICR mice of male sex, weighing 15.6-17.8 g were used, provided by Experimental Animal Centre of HKUST, housed in groups, given food and water ad libitum and maintained on a 12 hour light: 12 hour dark cycle. All of the experimental groups had 12 animals per group.
(§2) For each experimental animal, administered orally 0.2 ml (pH 7.2) of respective solvent at concentrations as stated above for each group (or double-distilled water for normal control group) one hour before testing.
Mice are lifted by the tail and allowed to grasp a horizontally strung wire (1 mm diameter, 20 cm long and placed 20 cm above the table) with their forepaws and released (Bonetti E. P. et al., Psychopharmacology (Berl). 1982; 78(1): 8-18; PMID: 6292984). For each experimental animal, the number of falling onto the table in 60 seconds was determined.
There is no significant difference between same dosage l-THP and dl-THP groups.

ICR mice [2] = assay: Locomotor activity test; settings: for No. of Transitions: mice, 1 h before test, 300 s
Method: as §1, §2
An apparatus with a brown light-resistant box having dimensions of 60×60×30 cm was used to perform the test. It consists of four cylindrical plastic boxes of 20 cm diameter, each having 6 equally distributed infrared photocells. The locomotor activity was counted automatically during a 300 second test period. A decrease in the number of transitions reflects a decrease in locomotor activity.
Physical reflections existed for this group and there was no abnormal phenomenon in respiratory circulation.

ICR mice [3] = assay: Elevated plus-maze test; settings: for Closed arm entry % / Closed arm entry No. / Open arm entry % / Open arm entry No. / Total no. of arm entries: 300 s; for Closed arm Time spent / Closed arm time spent % / Open arm Time spent / Open arm time spent %: 300 s test
Method: as §1, §2
The elevated plus-maze is made of 0.5 cm thick wood as a horizontal cross consisting of two open arms (25×5 cm) and two opposite arms (25×5 cm) enclosed by 10 cm high walls. The arms extend from a central platform having dimensions of 5×5 cm. The plus-maze is elevated to a height of 40 cm from the floor. The maze is put inside a box with dimensions of 30×30×50 cm. The mice are placed on the central platform of the maze facing a closed arm. The number of arm entries and the time spent in the open and closed arm are counted for 300 seconds (Pellow S. et al., “Anxiolytic and anxiogenic drug effects on exploratory activity in an elevated plus-maze: a novel test of anxiety in the rat”, Pharmacol Biochem Behav. 1986 March; 24(3): 525-9; PMID: 2871560). Arm entry was defined as one half body entered into the arm.

ICR mice [4] = assay: Hole-board test; settings: 300 s
Method: as §1, §2
The hole-board apparatus is a 0.5 cm thick walled wood arena of 60×60×30 cm, with four 5 cm equidistant 4 cm diameter holes spaced on the floor. The mice are placed on the centre of the arena and the number of head-dip on the hole and the number of rearing are counted during a 300 second test period (File S. E. et al., “The effects of triazolobenzo-diazepines in two animal tests of anxiety and in the holeboard.”, Br J Pharmacol. 1985 November; 86(3): 729-35; PMID: 2866006). After each trial, the floor of the apparatus was wiped and dried thoroughly with tissue to remove traces of the previous path.

[5] = mice, oral 0.5 mg/kg, 0.5 mg/kg

COc1cc2c(cc1OC)[C@@H]1Cc3ccc(OC)c(OC)c3CN1CC2 [l-THP, l-tetrahydropalmatine]
No. of falling (ICR mice [1]; oral 0.5 mg/kg): 0.4 ± 0.49
No. of falling (ICR mice [1]; oral 1.0 mg/kg): 0.4 ± 0.48
No. of falling (ICR mice [1]; oral 5.0 mg/kg): 0.5 ± 0.67
No. of falling (ICR mice [1]; oral 10 mg/kg): 1.0 ± 0.77
No. of falling (ICR mice [1]; oral 20 mg/kg): 4.5 ± 1.50
No. of falling (ICR mice [1]; oral 40 mg/kg): 8.5 ± 3.55
Number of falling (ICR mice [1]; oral 0.5 mg/kg): 0.40 ± 0.48
Number of falling (ICR mice [1]; oral 1.0 mg/kg): 0.40 ± 0.48
Number of falling (ICR mice [1]; oral 5.0 mg/kg): 0.50 ± 0.67
Number of falling (ICR mice [1]; oral 10 mg/kg): 1.00 ± 0.77
Number of falling (ICR mice [1]; oral 30 mg/kg): 18.50 ± 3.54
oral dosage at which there is no myorelaxation effect (ICR mice [1]; mice, oral): less than 20 mg/kg
medicinal effect under high dosage (ICR mice [2]; 20 mg/kg): inhibitive effect on CNS and myorelaxation
No. of Transitions (ICR mice [2]; oral 0.5 mg/kg): 121.1 ± 9.53
No. of Transitions (ICR mice [2]; oral 1.0 mg/kg): 111.3 ± 11.91
No. of Transitions (ICR mice [2]; oral 5.0 mg/kg): 104.5 ± 10.73
No. of Transitions (ICR mice [2]; oral 10 mg/kg): 101.4 ± 15.41
No. of Transitions (ICR mice [2]; oral 20 mg/kg): 53.0 ± 12.72
No. of Transitions (ICR mice [2]; oral 40 mg/kg): 13.6 ± 5.27
Optimal dosage for anxiolytic effect (ICR mice [3]; experimental mice): 1 mg/kg
medicinal effect under medium dosage (ICR mice [3]; experimental mice, 5 mg/kg): sedative and hypnotic effect
medicinal effect under low dosage (ICR mice [3]; experimental mice, 0.1-2.5 mg/kg): anxiolytic effect
most medicinal dosage (time spent and percentage of open arm entry) (ICR mice [3]; mice, oral): 1 mg/kg
Closed arm entry % (ICR mice [3]; mice, oral 0.05 mg/kg): 67.89 ± 6.77%
Closed arm entry No. (ICR mice [3]; mice, oral 0.05 mg/kg): 19.33 ± 5.55
Open arm entry % (ICR mice [3]; mice, oral 0.05 mg/kg): 32.11 ± 6.77%
Open arm entry No. (ICR mice [3]; mice, oral 0.05 mg/kg): 8.75 ± 1.36
Total no. of arm entries (ICR mice [3]; mice, oral 0.05 mg/kg): 28.08 ± 5.62
Closed arm Time spent (ICR mice [3]; mice, oral 0.05 mg/kg): 225.42 ± 12.13
Closed arm time spent % (ICR mice [3]; mice, oral 0.05 mg/kg): 80.96 ± 3.55%
Open arm Time spent (ICR mice [3]; mice, oral 0.05 mg/kg): 53.08 ± 10.40
Open arm time spent % (ICR mice [3]; mice, oral 0.05 mg/kg): 19.04 ± 3.55%
number of open arm entry of l-THP greater than dl-THP by (ICR mice [3]; mice, oral 0.1 mg/kg): 31.7%
percentage of open arm entry of l-THP greater than dl-THP by (ICR mice [3]; mice, oral 0.1 mg/kg): 40.4%
Closed arm entry % (ICR mice [3]; mice, oral 0.1 mg/kg): 57.17 ± 4.26%
Closed arm entry No. (ICR mice [3]; mice, oral 0.1 mg/kg): 15.27 ± 2.41
Open arm entry % (ICR mice [3]; mice, oral 0.1 mg/kg): 42.83 ± 4.26 %
Total no. of arm entries (ICR mice [3]; mice, oral 0.1 mg/kg): 26.82 ± 4.38
Closed arm Time spent (ICR mice [3]; mice, oral 0.1 mg/kg): 217.27 ± 15.11
Closed arm time spent % (ICR mice [3]; mice, oral 0.1 mg/kg): 76.33 ± 5.61%
Open arm Time spent (ICR mice [3]; mice, oral 0.1 mg/kg): 68.18 ± 20.68
Open arm time spent % (ICR mice [3]; mice, oral 0.1 mg/kg): 23.67 ± 5.61%
Closed arm entry % (ICR mice [3]; mice, oral 0.5 mg/kg): 58.18 ± 6.37%
Closed arm entry No. (ICR mice [3]; mice, oral 0.5 mg/kg): 16.17 ± 1.95
Total no. of arm entries (ICR mice [3]; mice, oral 0.5 mg/kg): 27.92 ± 4.08
Closed arm Time spent (ICR mice [3]; mice, oral 0.5 mg/kg): 205.33 ± 20.02
Closed arm time spent % (ICR mice [3]; mice, oral 0.5 mg/kg): 74.19 ± 7.09%
Open arm Time spent (ICR mice [3]; mice, oral 0.5 mg/kg): 71.75 ± 21.08
Open arm time spent % (ICR mice [3]; [5]): 25.81 ± 7.09 %
Open arm entry % (ICR mice [3]; [5]): 41.82 ± 6.37 %
Closed arm entry % (ICR mice [3]; mice, oral 1.0 mg/kg): 55.53 ± 3.10%
Closed arm entry No. (ICR mice [3]; mice, oral 1.0 mg/kg): 14.92 ± 1.93
Open arm entry % (ICR mice [3]; mice, oral 1.0 mg/kg): 44.47 ± 3.10 %
Total no. of arm entries (ICR mice [3]; mice, oral 1.0 mg/kg): 26.92 ± 3.61
Closed arm Time spent (ICR mice [3]; mice, oral 1.0 mg/kg): 204.00 ± 16.42
Closed arm time spent % (ICR mice [3]; mice, oral 1.0 mg/kg): 71.94 ± 6.70%
Open arm time spent % (ICR mice [3]; mice, oral 1.0 mg/kg, 1 mg/kg): 28.06 ± 6.70 %
Closed arm entry % (ICR mice [3]; mice, oral 2.5 mg/kg): 59.61 ± 4.06%
Closed arm entry No. (ICR mice [3]; mice, oral 2.5 mg/kg): 15.92 ± 2.15
Open arm entry % (ICR mice [3]; mice, oral 2.5 mg/kg): 40.39 ± 4.09 %
Open arm entry No. (ICR mice [3]; mice, oral 2.5 mg/kg): 10.92 ± 2.50
Total no. of arm entries (ICR mice [3]; mice, oral 2.5 mg/kg): 26.83 ± 4.20
Closed arm Time spent (ICR mice [3]; mice, oral 2.5 mg/kg): 227.83 ± 12.15
Closed arm time spent % (ICR mice [3]; mice, oral 2.5 mg/kg): 78.04 ± 4.70%
Open arm Time spent (ICR mice [3]; mice, oral 2.5 mg/kg): 64.75 ± 16.70
Open arm time spent % (ICR mice [3]; mice, oral 2.5 mg/kg): 21.96 ± 4.70%
number of open arm entry of l-THP less than dl-THP by (ICR mice [3]; mice, oral 5 mg/kg): 357.4%
percentage of open arm entry of l-THP less than dl-THP by (ICR mice [3]; mice, oral 5 mg/kg): 69.5%
Closed arm entry % (ICR mice [3]; mice, oral 5.0 mg/kg): 70.37 ± 5.03%
Closed arm entry No. (ICR mice [3]; mice, oral 5.0 mg/kg): 7.83 ± 3.43
Closed arm Time spent (ICR mice [3]; mice, oral 5.0 mg/kg): 253.25 ± 24.32
Closed arm time spent % (ICR mice [3]; mice, oral 5.0 mg/kg): 88.54 ± 5.48%
Open arm time spent % (ICR mice [3]; mice, oral 5.0 mg/kg, 5 mg/kg): 11.46 ± 5.48 %
Open arm entry % (ICR mice [3]; mice, oral 5.0 mg/kg, 5 mg/kg): 29.63 ± 5.03%
increase of percentage of open arm entry compared to the normal control group (ICR mice [3]; mice, oral 0.1-2.5 mg/kg): 39.31-48.14%
increase of percentage of time spent in open arm compared to the normal control group (ICR mice [3]; mice, oral 0.1-2.5 mg/kg): 27.19-50.78%
Head-dip No. (ICR mice [4]; oral 0.05 mg/kg): 15.83 ± 3.01
Rearing No. (ICR mice [4]; oral 0.05 mg/kg): 26.83 ± 5.51
Total No. (head-dip and rearing) (ICR mice [4]; oral 0.05 mg/kg): 42.67 ± 6.64
Head-dip No. (ICR mice [4]; oral 0.1 mg/kg): 18.73 ± 6.56
Rearing No. (ICR mice [4]; oral 0.1 mg/kg): 20.36 ± 9.54
Rearing No. (ICR mice [4]; oral 0.5 mg/kg): 27.08 ± 13.64
Total No. (head-dip and rearing) (ICR mice [4]; oral 0.5 mg/kg): 41.00 ± 10.20
Rearing No. (ICR mice [4]; oral 1.0 mg/kg): 23.50 ± 9.27
Head-dip No. (ICR mice [4]; oral 2.5 mg/kg): 15.67 ± 4.00
Rearing No. (ICR mice [4]; oral 2.5 mg/kg): 22.42 ± 4.06
Total No. (head-dip and rearing) (ICR mice [4]; oral 2.5 mg/kg): 38.08 ± 6.43
Head-dip No. (ICR mice [4]; oral 5.0 mg/kg): 8.75 ± 5.56
